The Emax is the maximal effect, on the per cent scale that the assay sets. A word on the ED50: it is the midpoint of the dose-response relation.

Data set [1] relates to phenylephrine pre-constricted rat aortic rings. The data set can be described thus: Relaxation of phenylephrine pre-constricted rat aortic rings in vitro. Details: species or system rat (Sprague-Dawley). The following applies: phenylephrine 10^-6 M pre-constricted rat aortic rings; for EC50: read-out: In vitro EC50 (effective concentration to produce a 50% relaxation response). The source says:
As noted above, the present invention also provides methods for relaxing smooth muscle in a warm-blooded animal (e.g., humans, chimps, cows, goats, pigs, dogs, cats, rats or mice) comprising the step of administering to the animal a therapeutically effective amount of a transition-metal nitrosyl complex as described above. Briefly, the efficacy (and therapeutically effective amount) of a particular transition-metal nitrosyl complex may be readily determined by both in vitro and in vivo techniques. See generally Blattner et al., Experiments on Isolated Smooth Muscle Preparations, Hugo Sachs Elektronik KG, 1980 (incorporated herein by reference in its entirety). For example, within one embodiment, a small animal such as a rat, rabbit, or guinea-pig is sacrificed and exsanguinated. The required tissue (e.g., artery, vein, stomach, ileum, jejunum, caecum, colon, uterus, spleen, trachea, seminal vesicle, ductus deferens, or corpus cavernosum) is removed and placed in an oxygenated physiological solution (e.g., Krebs or Tyrode solution). This tissue is then cut such that one end is attached to the bottom of a muscle bath, and the other end to a force-displacement transducer (for example, Grass FT-03-C, Quincy, Mass.) for isometric recording with a physiological recorder (Grass, Model 79G). An appropriate pre-load (0.5 to 10 grams, depending on the tissue) is then applied, and the tissue equilibrated in the bath for one hour prior to the start of the study.
The measurement of smooth muscle contractile response may then be performed essentially as described by Pang and Sutter in Blood Vessels 17:293-301, 1980 (incorporated herein by reference in its entirety). Briefly, a dose-response curve of an agonist (e.g., phenylephrine, norepinephrine) is first obtained by measuring contractile response of the muscle as a function of agonist concentration. Response to the agonist is then measured beginning with the addition of the lowest dose of agonist to the bath. Each dose is equilibrated in the bath for 2 to 6 minutes in order to assure a steady state response, prior to proceeding to the next higher dose.
Measurement of the effectiveness of smooth muscle relaxant compositions may then be determined by measurement of the smooth muscle relaxation response, in a manner analogous to contractile response. See generally Wang, Poon and Pang, J. Pharm. Exp. Ther. 265:112-119, 1993 (incorporated herein by reference in its entirety). Briefly, tissue is first contracted with an agonist such as phenylephrine, usually at a concentration which results in 90% of the tissue's maximum contractile response (referred to EC90). At the steady state phase of the contractile response to the agonist, a cumulative dose-response curve for the smooth muscle relaxant may be determined. For each concentration of relaxant, a steady state is achieved and the relaxation response measured. […] For example, the EC50 of a relaxant is the effective concentration of the relaxant required to relax a pre-contracted muscle to 50% of its maximum contractile response.
(§1) Examples 5-7 present in vitro and in vivo results of the evaluation of the efficiency of the transition-metal nitrosyl complexes in relaxing blood vessels and lowering blood pressure. Sprague-Dawley rats (300-400g) were used for all experiments. Each group consisted of 1-6 rats for the in vivo experiments and 3-6 aortic rings for the in vitro experiments. Each aortic ring was from a different rat.
Example 5 presents the results of the evaluation of the efficacy of the transition metal nitrosyl complexes in blood vessel relaxation. In these in vitro experiments, phenylephrine pre-constricted rat aortae were subjected to increasing doses of the transition-metal nitrosyl complexes, and the relaxation of the rat aortae measured. […]

Data set [2] concerns mean arterial pressure in conscious rats. The data set can be described thus: Depression of mean arterial pressure in conscious rats in vivo. To be noted: intravenous bolus. Details: species or system rat (Sprague-Dawley). The method, then: Likewise, in vivo tests may also be readily developed and utilized in order to determine the efficacy (and therapeutically effective amount) of the transition-metal nitrosyl complexes described above. For example, within one aspect of the present invention, a series of transition-metal nitrosyl complexes were tested in vivo for their ability to reduce the mean arterial blood pressure of conscious rats in vivo. Briefly, as described in greater detail below in Example 6, conscious, unrestrained rats were intravenous bolus injected with the transition-metal nitrosyl complexes. Five of the complexes were determined to dose-dependently reduce mean arterial pressure with maximum depressor effects which ranged from -36 to -59 mm Hg. Maximum depressor effects of sodium nitroprusside and nitroglycerin under similar conditions were -58 and -56 mm Hg, respectively. […] The results of the effects of the transition-metal nitrosyl complexes on the depression of mean arterial pressure in conscious rats in vivo are summarized in Example 5 and Table 1.
as §1
Example 6 describes the results of the determination of the efficacy of the transition-metal nitrosyl complexes in reducing blood pressure of conscious, unrestrained rats. In these in vivo experiments, the depression of rat arterial pressure was measured as a function of transition-metal nitrosyl complex dose. Dose-response (pressure depression) curves were constructed and the capacities of the transition-metal nitrosyl complexes to reduce arterial pressure were compared and related to nitroglycerin and sodium nitroprusside. The results of these experiments are reported in terms of ED50 (effective dose to produce a 50% pressure depression response) and Emax (maximum decrease in blood pressure) and are summarized in Example 5, Table 1.
(§2) The rats were anaesthetized with halothane (4% in air for induction and 1.5% in air for surgery). A polyethylene cannula (PE50) was inserted into the left iliac artery for the measurement of mean arterial pressure (MAP) by a pressure transducer (P23DB, Gould Statham, Calif.). A PE50 cannula was also inserted into the iliac vein for the administration of the vehicle or a drug. The rats were then put into a small cage and given>6 hr to recover from the effects of anaesthesia and surgery before use. The rats were allowed to move freely during the recovery phase as well as during the conduction of the experiments as described in Wang and Pang, Br. J. Pharmacol. 103:2004-8, 1991. Only one dose-response curve of a metal nitrosyl complex, sodium nitroprusside, nitroglycerin or vehicle (0.9% NaCl solution or dimethylsulfoxide solution) was constructed in each rat. All drugs or vehicle were intravenous bolus injected at dose-intervals of 3-7 min, to allow the recovery of depressor responses, before the injection of the next higher dose.

Data set [3] has as its system conscious rats. The data set can be described thus: Toxic dose (convulsion / death) in conscious rats in vivo. Set-up: species or system rat (Sprague-Dawley); unit not given here. The following applies: intravenous bolus; for Toxic dose: dose which caused convulsion: footnote a; for Toxic dose: dose which caused neither convulsion nor death: footnote c.
Source text: as §1
^a denotes dose which caused convulsion
^b denotes dose which caused death
^c denotes dose which caused neither convulsion nor death.
as §2

The subject of data set [4] is phenylephrine-preconstricted rat aortic rings. The data set can be described thus: Tolerance: relaxation of rat aortic rings after pre-incubation with CpCr(NO)2 Cl or nitroglycerin. Set-up: species or system rat (Sprague-Dawley). The following applies: 1 h.
Source text: In addition to determining efficacy of transition-metal nitrosyl complexes in either in vitro or in vivo tests, it is also generally preferably to determine whether the composition induces tolerance. For example, within one embodiment of the invention, induction of tolerance by the transition-metal nitrosyl complex described above may be readily determined by exposing rat aortic rings to a transition-metal nitrosyl complex prior to relaxation determinations. More specifically, as described in greater detail 10 below in Example 7, intact rat aortic rings were pre-incubated with a typical transition- metal nitrosyl complex for one hour prior to examination of its concentration-relaxation effect in phenylephrine-preconstricted conditions. Unlike the relaxation response of nitroglycerin, the relaxation response of the transition-metal nitrosyl complexes was not diminished by pre-exposure of the aortic ring to the complex.
as §1
Example 7 presents the results of pre-exposing the rat aortae to the transition-metal nitrosyl complexes to evaluate the development of tolerance. In these experiments, the rat aortic rings were pretreated with a transition-metal nitrosyl complex prior to the measurement of dose-dependent relaxation as described above in Example 5.
In this study, the vehicles, CpCr(NO)2 Cl (10^-6 M), or nitroglycerin (3×10^-4 M) was added to the baths for 1 h, followed by the washout of drug or vehicle, preconstriction with phenylephrine and the construction of a concentration-relaxation curve of CpCr(NO)2 Cl.

Data set [5] has as its system blood vessels. The following applies: cited from earlier work.
Where [6] appears, read: pre-incubation nitroglycerin 3×10^-4 M.

Turning to `O=N[O][Cr+]([N]=O)[N]=O.c1cc[cH-]c1` [CpCr(NO)2 (ONO), Nitrito(.eta.^5 -cyclopentadienyl)dinitrosylchromium], in data set [1], the “In vitro Emax (percent relaxation of phenylephrine-induced contraction)” value is listed as -98% and the EC50 came to 100 nM. In data set [2], the “In vivo ED50 (effective dose to produce a 50% pressure depression response)” value is 0.0015 mg/kg and the “In vivo Emax (maximum decrease in blood pressure)” value is recorded as -45 mmHg. Besides, the “Toxic dose: dose which caused convulsion” value in data set [3] was 1280.

For the molecule `O=[N][Cr+]([Cl])[N]=O.c1cc[cH-]c1` [CpCr(NO)2 Cl], the “effect of pre-incubation with CpCr(NO)2 Cl on EC50 and Emax” value in data set [4] (pre-incubation CpCr(NO)2 Cl 10^-6 M) is reported as “did not alter the EC50 or Emax”. For the same molecule, in data set [4] (pre-incubation nitroglycerin 3×10^-4 M, cross-tolerance), the “effect of pre-incubation with nitroglycerin on EC50 and Emax” value is given as “did not alter the EC50 or Emax”. Besides, in data set [1], the “In vitro Emax (percent relaxation of phenylephrine-induced contraction)” value was -118% and the EC50 was determined as 110 nM. For the same molecule, in data set [2], the “In vivo ED50 (effective dose to produce a 50% pressure depression response)” value is 0.0044 mg/kg and the “In vivo Emax (maximum decrease in blood pressure)” value is -42 mmHg. In addition, in data set [3], the “Toxic dose: dose which caused convulsion” value was 2,000.

Consider `C1CCNCC1.O=[N][Cr+][I].c1cc[cH-]c1` [CpCr(NO)(pip)I], for which, in data set [1], the “In vitro Emax (percent relaxation of phenylephrine-induced contraction)” value is given as -110% and the EC50 is 450 nM.

For `O=[N][Mo+]([Cl])[N]=O.c1cc[cH-]c1` [CpMo(NO)2 Cl, chloro(.eta.^5 -cyclopentadienyl)nitrosylmolybdenum], in data set [1], the “In vitro Emax (percent relaxation of phenylephrine-induced contraction)” value was -113% and the EC50 turned out to be 17000 nM. Besides, in data set [2], the “In vivo ED50 (effective dose to produce a 50% pressure depression response)” value was 0.4 mg/kg and the “In vivo Emax (maximum decrease in blood pressure)” value is recorded as -59 mmHg. For the same molecule, the “Toxic dose: dose which caused death” value in data set [3] (footnote b) was 25,600.

Turning to `O=[N][W+]([Cl])[N]=O.c1cc[cH-]c1` [CpW(NO)2 Cl], in data set [1], the “In vitro Emax (percent relaxation of phenylephrine-induced contraction)” value is -122% and the EC50 worked out at 2000 nM. Besides, in data set [2], the “In vivo ED50 (effective dose to produce a 50% pressure depression response)” value turned out to be 2.976 mg/kg and the “In vivo Emax (maximum decrease in blood pressure)” value was -36 mmHg. Further, the “Toxic dose: dose which caused neither convulsion nor death” value in data set [3] is on record as 40,000.

Regarding `O=[N][W+].[C-]#[O+].[C-]#[O+].c1cc[cH-]c1` [CpW(NO)(CO)2, dicarbonyl(.eta.^5 -cyclopentadienyl)nitrosyltungsten], in data set [1], the “In vitro Emax (percent relaxation of phenylephrine-induced contraction)” value was -107% and the EC50 stood at 2500 nM. In addition, the “In vivo Emax (maximum decrease in blood pressure), in words” value in data set [2] (biphasic denotes depressor followed by pressor response) was “biphasic”. In addition, the “Toxic dose: dose which caused convulsion” value in data set [3] is on record as 500.

`O=[N+]([O-])OCC(CO[N+](=O)[O-])O[N+](=O)[O-]` [Nitroglycerin, glyceryl trinitrate, reference compound]: in data set [4] (setting [6]), the “effect of pre-incubation with nitroglycerin on EC50” value was “EC50 significantly increased” and the “effect of pre-incubation with nitroglycerin on Emax” value was “Emax unaltered”. Further, in data set [1], the EC50 worked out at 300 nM. The Emax in data set [1] (read-out: In vitro Emax (percent relaxation of phenylephrine-induced contraction)) was -104%. In addition, the ED50 in data set [2] (Rattus norvegicus, read-out: In vivo ED50 (effective dose to produce a 50% pressure depression response)) was found to be 0.2 mg/kg. Further, in data set [2], the “In vivo Emax (maximum decrease in blood pressure)” value is recorded as -56 mmHg and the maximum depressor effect was -56 mm Hg. The “tolerance on continual exposure” value in data set [5] is “reduction in the ability of these compounds to vasodilate blood vessels”.

Consider `O=[N][Fe]1([N]=O)[I][Fe]([N]=O)([N]=O)[I]1` [[Fe(NO)2 I]2, Iodo(dinitrosyl)iron Dimer], for which, in data set [1], the “In vitro Emax (percent relaxation of phenylephrine-induced contraction)” value is on record as -108% and the EC50 was determined as 20000 nM. Moreover, in data set [2], the “In vivo ED50 (effective dose to produce a 50% pressure depression response)” value turned out to be 0.554 mg/kg and the “In vivo Emax (maximum decrease in blood pressure)” value is recorded as -51 mmHg. The “Toxic dose: dose which caused neither convulsion nor death” value in data set [3] came out at 5120.

These data come from patent US5811463A, “Compositions and method for relaxing smooth muscles” (University of British Columbia, priority 1996, dated 1998).
